Source: US9073954B2, “5-substituted benzimidazolium compounds” (Boehringer Ingelheim International GmbH, priority 2013, dated 2015)

Tests used:
[1] = target: T1, ENaC (Epithelial Sodium Channel) (Mus musculus, UniProt Q61180+Q9WU38+Q9WU39); experiment: Ussing chamber: short circuit current in M-1 cells; assay type: cell-based; conditions: Ussing chamber, mouse kidney M-1 cells, amiloride sensitive I_SC, apical application, 37° C.; read-out: IC50
T1 construct: Mouse kidney M-1 cells were cultivated in DMEM; endogenous in cells; host or cells: mouse kidney M-1 cells
T1 sequence (Q61180 1-699): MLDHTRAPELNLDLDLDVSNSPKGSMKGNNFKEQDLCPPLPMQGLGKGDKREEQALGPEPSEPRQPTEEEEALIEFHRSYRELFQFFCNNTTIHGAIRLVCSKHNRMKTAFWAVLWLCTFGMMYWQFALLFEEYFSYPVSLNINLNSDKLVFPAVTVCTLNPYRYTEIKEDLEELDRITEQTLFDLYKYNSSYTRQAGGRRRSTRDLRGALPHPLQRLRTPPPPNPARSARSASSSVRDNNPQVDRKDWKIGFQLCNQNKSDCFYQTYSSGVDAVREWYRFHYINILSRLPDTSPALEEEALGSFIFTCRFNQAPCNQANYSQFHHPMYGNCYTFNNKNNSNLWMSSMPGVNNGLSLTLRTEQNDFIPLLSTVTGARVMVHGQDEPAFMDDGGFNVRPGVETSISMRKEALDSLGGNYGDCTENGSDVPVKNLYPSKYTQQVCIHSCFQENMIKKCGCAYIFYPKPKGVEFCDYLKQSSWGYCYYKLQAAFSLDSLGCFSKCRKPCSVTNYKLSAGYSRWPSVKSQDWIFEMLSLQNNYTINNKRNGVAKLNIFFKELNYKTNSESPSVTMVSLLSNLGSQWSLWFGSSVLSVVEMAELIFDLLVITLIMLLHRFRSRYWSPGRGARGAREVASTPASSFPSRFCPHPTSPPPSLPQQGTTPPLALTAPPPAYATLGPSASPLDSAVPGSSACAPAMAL
T1 sequence (Q9WU38 1-638): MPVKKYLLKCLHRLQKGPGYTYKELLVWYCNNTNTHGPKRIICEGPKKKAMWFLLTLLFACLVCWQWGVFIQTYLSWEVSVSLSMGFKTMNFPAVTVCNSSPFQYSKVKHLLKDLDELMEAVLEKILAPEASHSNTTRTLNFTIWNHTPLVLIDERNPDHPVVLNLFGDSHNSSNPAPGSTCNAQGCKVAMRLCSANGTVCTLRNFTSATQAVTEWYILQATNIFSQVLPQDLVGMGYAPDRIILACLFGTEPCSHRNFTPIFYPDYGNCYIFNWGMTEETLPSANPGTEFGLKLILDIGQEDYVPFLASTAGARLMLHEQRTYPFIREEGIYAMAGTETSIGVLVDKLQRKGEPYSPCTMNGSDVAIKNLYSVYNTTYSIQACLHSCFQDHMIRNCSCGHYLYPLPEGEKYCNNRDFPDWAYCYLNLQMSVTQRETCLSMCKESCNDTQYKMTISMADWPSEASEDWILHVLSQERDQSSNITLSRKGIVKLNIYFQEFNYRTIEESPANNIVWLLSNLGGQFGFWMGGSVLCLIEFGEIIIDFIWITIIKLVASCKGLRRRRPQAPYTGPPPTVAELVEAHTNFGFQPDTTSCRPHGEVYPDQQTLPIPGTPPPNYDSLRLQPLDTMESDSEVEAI
T1 sequence (Q9WU39 1-655): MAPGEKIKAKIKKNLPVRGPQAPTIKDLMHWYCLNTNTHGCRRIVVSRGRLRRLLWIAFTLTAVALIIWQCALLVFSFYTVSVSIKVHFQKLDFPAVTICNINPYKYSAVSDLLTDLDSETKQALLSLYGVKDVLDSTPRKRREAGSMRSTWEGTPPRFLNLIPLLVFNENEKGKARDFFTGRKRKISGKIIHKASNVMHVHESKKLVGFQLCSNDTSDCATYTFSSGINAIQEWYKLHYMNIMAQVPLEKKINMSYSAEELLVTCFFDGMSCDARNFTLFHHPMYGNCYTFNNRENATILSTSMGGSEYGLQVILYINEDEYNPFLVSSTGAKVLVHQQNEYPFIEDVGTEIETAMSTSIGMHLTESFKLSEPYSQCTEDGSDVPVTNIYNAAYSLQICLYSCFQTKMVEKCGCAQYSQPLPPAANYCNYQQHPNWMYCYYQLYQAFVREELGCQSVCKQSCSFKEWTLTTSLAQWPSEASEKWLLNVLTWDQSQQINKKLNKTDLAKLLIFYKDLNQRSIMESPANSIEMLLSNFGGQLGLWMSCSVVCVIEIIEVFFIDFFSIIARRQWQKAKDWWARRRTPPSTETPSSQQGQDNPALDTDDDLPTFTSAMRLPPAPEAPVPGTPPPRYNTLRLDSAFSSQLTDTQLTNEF
Experimental: Mouse kidney M-1 cells were cultivated in DMEM containing 5% FCS and 5 μM dexamethasone for 10 to 12 days on polyester transwell filters. Filters were inserted into a teflon-coated well-plate which fit into the ussing chamber system. Prior to measurement the medium of M-1 cells was replaced with Caco-2 transport buffer (Invitrogen, Germany). During measurements, the Ussing chamber temperature was kept at 37° C. Short circuit currents (I_sc) were measured in the voltage-clamp mode with the software package Lab View for data acquisition and analysis. The transepithelial electrical resistance (TEER) was determined by the application of voltage steps of ±5 mV every 5 sec. Compounds were administered at a final concentration of 3 μM or at increasing concentrations (1-3-10 μM) to the apical solution. At the end of each experiment the amiloride sensitive I_SC was measured by adding 3 μM amiloride to the apical compartment. Results are expressed as inhibition in percent of the amiloride effect or as IC50.
With the example compounds given above, the following IC50 values were determined in the Ussing Chamber assay: […]

[2] = Permeability in CALU-3 cells; assay type: in vitro ADME; conditions: human, CALU-3 monolayers, 10 μM compound, pH 7.4, 37° C.; for Papp A→B at 90 min, 10 μM: apical-to-basal; for Papp B→A at 90 min, 10 μM: basal-to-apical
Experimental: Permeability in CALU-3 Cells:
Permeability measurements across polarized, confluent CALU-3 cell monolayers grown on permeable filter supports are used to provide information on the potential of a compound to pass the lung epithelium. Apparent permeability coefficients (Papp) of the compounds across the CALU-3 cell monolayers are measured (pH 7.4, 37° C.) in apical-to-basal (AB) and basal-toapical (BA) transport direction.
CALU-3 cells (1-2×10^5 cells/1 cm^2 area) are seeded on filter inserts (Costar transwell polycarbonate filters, 0.4 μm pore size) and cultured (for 10-12 days DMEM) until tight monolayers are formed. Compounds of interest are dissolved in appropriate solvent (DMSO, 10 mM stock solution). Stock solutions are diluted with HTP-4 buffer (128.13 mM NaCl, 5.36 mM KC, 1 mM MgSO4, 1.8 mM CaCl2, 4.17 mM NaHCO3, 1.19 mM Na2HPO4×7H2O, 0.41 mM NaH2PO4xH2O, 15 mM HEPES, 20 mM glucose, 0.25% BSA, pH 7.4) to prepare the transport solutions (10 μM compound, final DMSO<=0.5%). The transport solution (TL) is applied to the apical or basolateral donor side for measuring A-B or B-A permeability (3 filter replicates), respectively. The receiver side contains the same buffer as the donor side. After 30 min of accommodation, samples are collected at the start t0=0 min and at the end of the experiment tn=90 min from the donor and at 0, 30, 60, and 90 min also from the receiver chamber. Volume removed is replenished by HTP-4 buffer. The compound concentration in the samples is measured by HPLC-MS/MS or scintillation counting. The permeability coefficient (Papp) and efflux ratio are calculated according to: Papp [cm/s]=(concentration receiver [nM]*volume receiver [mL]/time interval [sec])*(1/filter area)*(1/donor concentration [nM])
With example compounds given above, the following permeability values were determined in the CALU-3 cells assay: […]

IC50 [1] [pM] | Papp A→B at 90 min, 10 μM [2] [×10⁻⁶ cm/s] | Papp B→A at 90 min, 10 μM [2] [×10⁻⁶ cm/s] | SMILES
400 | 0.2 | 0.2 | CCn1c(CNC(=O)c2nc(Cl)c(N)nc2N)[n+](C)c2cc(Cl)c(OCCOCCOC)cc21 [Example 3.8]
400 | 0.1 | 0.2 | CCn1c(CNC(=O)c2nc(Cl)c(N)nc2N)[n+](CC)c2cc(F)c(C(=O)N3CCOCC3)cc21 [Example 3.12]
2000 | < 0.9 | 0.2 | CCn1c(CNC(=O)c2nc(Cl)c(N)nc2N)[n+](CC)c2ccc(CNC(=O)CN(C)C)cc21.[Cl-] [Example 7.1]
